Measurements taken from patent US9274101B2 (BIOLOG, Inc., priority 2001, dated 2016).

Each compound was assayed on ten strains of E. coli.
Format: cell-based, Escherichia coli
For carbon source utilization in this document: key: +: indicates that the organism tested was capable of utilizing the carbon source listed; −: indicates that the organism tested was not capable of utilizing the carbon source listed; indicates weak positive reactions.

| Compound | carbon source utilization |
| --- | --- |
| O=P(O)(O)OCC(O)CO (racemic) [D,L-α-glycerol phosphate] | + and − |
| O=C(CO)[C@@H](O)[C@H](O)[C@H](O)COP(=O)(O)O [Fructose-6-phosphate] | + |
| O=P(O)(O)O[C@H]1O[C@H](CO)[C@@H](O)[C@H](O)[C@H]1O [Glucose-1-phosphate] | + |
| O=C[C@H](O)[C@@H](O)[C@H](O)[C@H](O)COP(=O)(O)O [Glucose-6-phosphate] | + |

These compounds were tested on E. coli MG1655.
Format: cell-based, Escherichia coli

| Compound | suitability as nitrogen source (growth, purple color) |
| --- | --- |
| N[C@@H](CS)C(=O)O [L-cysteine] | not suitable |

System: E. coli MG1655
Format: cell-based, Escherichia coli
Remark: another data set of the same source

| Compound | suitability as phosphorus source (growth, purple color) | suitability as sulfur source (growth, purple color) |
| --- | --- | --- |
| O=P(O)(O)OCC(O)CO (racemic) [D,L-α-glycerol phosphate] | positive |  |
| O=C(CO)[C@@H](O)[C@H](O)[C@H](O)COP(=O)(O)O [Fructose-6-phosphate] | positive |  |
| O=P(O)(O)O[C@H]1O[C@H](CO)[C@@H](O)[C@H](O)[C@H]1O [Glucose-1-phosphate] | positive |  |
| O=C[C@H](O)[C@@H](O)[C@H](O)[C@H](O)COP(=O)(O)O [Glucose-6-phosphate] | positive |  |
| N[C@@H](CS)C(=O)O [L-cysteine] |  | positive |
| Nc1ccn([C@@H]2O[C@@H]3COP(=O)(O)O[C@H]3[C@H]2O)c(=O)n1 [cytidine 3′:5′-cyclic monophosphate] | not suitable |  |
| OP(O)(=S)S [dithiophosphate] | positive | positive |
| O=C(COP(=O)(O)O)[C@@H](O)[C@H](O)[C@H](O)CO [fructose 1-phosphate] | positive |  |
| N[C@H]1C(OP(=O)(O)O)O[C@H](CO)[C@@H](O)[C@@H]1O (some centres unmarked) [glucosamine 1-phosphate] | positive |  |
| N[C@H]1C(O)O[C@H](COP(=O)(O)O)[C@@H](O)[C@@H]1O (some centres unmarked) [glucosamine 6-phosphate] | positive |  |
| Nc1nc2c(ncn2[C@@H]2O[C@H](CO)[C@H]3OP(=O)(O)O[C@H]32)c(=O)[nH]1 [guanosine 2′:3′-cyclic monophosphate] | positive |  |
| Nc1nc2c(ncn2[C@@H]2O[C@H](CO)[C@@H](OP(=O)(O)O)[C@H]2O)c(=O)[nH]1 [guanosine 3′-monophosphate] | positive |  |
| Nc1nc2c(ncn2[C@@H]2O[C@@H]3COP(=O)(O)O[C@H]3[C@H]2O)c(=O)[nH]1 [guanosine 3′:5′-cyclic monophosphate] | not suitable |  |
| NCCS(=O)O [hypotaurine] |  | positive |
| O=P(O)(O)O[C@H]1[C@H](OP(=O)(O)O)[C@@H](OP(=O)(O)O)[C@H](OP(=O)(O)O)[C@@H](OP(=O)(O)O)[C@H]1OP(=O)(O)O [inositol hexaphosphate] | not suitable |  |
| O=S(=O)(O)CCO [isethionate] |  | positive |
| N[C@@H](CSC[C@H](N)C(=O)O)C(=O)O [lanthionine] |  | positive |
| O=P(O)(O)OC1O[C@H](CO)[C@@H](O)[C@H](O)[C@@H]1O (some centres unmarked) [mannose 1-phosphate] | positive |  |
| O=C[C@@H](O)[C@@H](O)[C@H](O)[C@H](O)COP(=O)(O)O [mannose 6-phosphate] | positive |  |
| O=P(O)(O)CP(=O)(O)O [methylene diphosphonic acid] | not suitable |  |
| O=[N+]([O-])c1ccc(OP(=O)(O)O)cc1 [nitrophenyl phosphate] | not suitable |  |
| CN(CC(=O)O)C(=N)NP(=O)(O)O [phosphocreatine] | positive |  |

| Compound | suitability as phosphorus source (growth, purple color) | suitability as sulfur source (growth, purple color) |
| --- | --- | --- |
| C=C(OP(=O)(O)O)C(=O)O [phosphoenol pyruvate] | positive |  |
| O=C(O)COP(=O)(O)O [phosphoglycolic acid] | positive |  |
| O=C(O)CP(=O)(O)O [phosphonoacetic acid] | not suitable |  |
| O=P(O)(O)OP(=O)(O)O [pyrophosphate] | not suitable |  |
| NCCS(=O)(=O)O [taurine] |  | positive |
| C[C@H](CCC(=O)NCCS(=O)(=O)O)[C@H]1CC[C@H]2[C@@H]3[C@H](O)C[C@@H]4C[C@H](O)CC[C@]4(C)[C@H]3C[C@H](O)[C@]12C [taurocholic acid] |  | positive |
| O=S1(=O)CCCC1 [tetramethylene sulfone] |  | not suitable |
| O=S(=O)(O)SSS(=O)(=O)O [tetrathionate] |  | positive |
| O=C(O)CS [thioglycolic acid] |  | not suitable |
| OP(O)(O)=S [thiophosphate] | positive | positive |
| O=S(O)(O)=S [thiosulfate] |  | positive |
| Cc1cn([C@H]2C[C@@H]3OP(=O)(O)OC[C@H]3O2)c(=O)[nH]c1=O [thymidine 3′:5′-cyclic monophosphate] | not suitable |  |
| Cc1cn([C@H]2C[C@H](O)[C@@H](COP(=O)(O)O)O2)c(=O)[nH]c1=O [thymidine 5′-monophosphate] | positive |  |
| Cc1cn([C@H]2C[C@H](OP(=O)(O)O)[C@@H](CO)O2)c(=O)[nH]c1=O [thyrnidine 3′-monophosphate] | positive |  |
| O=P(O)(O)OP(=O)(O)OP(=O)(O)O [tripolyphosphate] | not suitable |  |
| O=c1ccn([C@@H]2O[C@H](CO)[C@@H](O)[C@H]2OP(=O)(O)O)c(=O)[nH]1 [uridine 2′-monophosphate] | positive |  |
| O=c1ccn([C@@H]2O[C@H](CO)[C@H]3OP(=O)(O)O[C@H]32)c(=O)[nH]1 [uridine 2′:3′-cyclic monophosphate] | positive |  |
| O=c1ccn([C@@H]2O[C@@H]3COP(=O)(O)O[C@H]3[C@H]2O)c(=O)[nH]1 [uridine 3′:5′-cyclic monophosphate] | not suitable |  |
| O=P(O)(O)OC(CO)CO [β-glycerophosphate] | positive |  |
| O-acetyle-serine with sodium sulfate |  | positive |
| phosphatidyl glycerol | not suitable |  |
